We go through 10 molecules from patent US20250082633A1, “COMPOUNDS AND METHODS FOR MODULATING SPLICING” (REMIX THERAPEUTICS INC., priority 2021, published 2025).

What all share (format): cell-based
The test system of one experiment is MYB mRNA. The experiment can be described thus: RT-qPCR splicing assay, MYB canonical (CJ) and alternative (AJ) junction mRNA. The following applies: Homo sapiens; for AC50: read-out: MYB AJ AC50; for IC50: read-out: MYB CJ IC50. The method in brief:
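Splice-junction mRNAs (CJ, AJ) measured by TaqMan one-step RT-qPCR on cell lysates, using PPIA as reference for adherent A673 and GAPDH or GUSB for K562. Cells exposed for 24 h to 11 threefold concentrations up to 10 uM final, with DMSO at or below 0.25%.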
A general note: In qPCR the cycle at which signal appears reflects the starting amount.

The subject of another experiment is Target C. Description: RT-qPCR splicing assay, gene panel, Target C canonical junction (CJ) mRNA. The following applies: Homo sapiens, read-out: Target C CJ IC50. The method in brief:
(§1)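 A673 (DMEM/10% FBS) or K562 (IMDM/10% FBS) cells were treated 24 h at 37 °C with an 11-point 3-fold dilution series, top final 10 uM, DMSO ≤0.25%. Lysates underwent one-step RT-qPCR for the canonical-junction isoform with GAPDH, GUSB or PPIA as housekeeper. ΔΔCt versus DMSO was converted to RQ (2^−ΔΔCt), then to percent response.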

The next experiment concerns SMN2 mRNA. The experiment can be described thus: RT-qPCR splicing assay, gene panel, SMN2 canonical junction (CJ) mRNA. The following applies: Homo sapiens, read-out: SMN2 CJ IC50. The gist of the method:
as §1

[1] abbreviates: decrease in CJ mRNA levels, larger panel of genes, Table 3.
Setting [2] is: decrease in canonical junction mRNA, A673 or K562 cells, 24 hours treatment, Table 2.
[3] abbreviates: increase in alternative junction mRNA, A673 or K562 cells, 24 hours treatment, Table 2.

SMILES strings stand for the structures. Like-named read-outs stand apart in the source and are kept apart here.

On to `Cc1cn2nc(-c3cc(F)c4nn(C5CCN(C6CCC6)CC5)cc4c3)cc(C)c2n1` [Compound 151, 6-[2-(1-cyclobutyl-4-piperidyl)-7-fluoro-indazol-5-yl]-2,8-dimethyl-imidazo [1,2-b] pyridazine], for which the half-maximal activity concentration (AC50) (commonly the concentration at which the activity in the assay is half-maximal) in the experiment on MYB mRNA (24 h) lay in the range of 0.1 to 1 µM. Besides, the IC50 in the experiment with MYB mRNA (24 h), with MYB mRNA, in the experiment on Target C and with SMN2 mRNA was less than 0.1 µM throughout.
Regarding `Cc1cn2cc(-c3cc(F)c4nn(C5CCNCC5)cc4c3)nc(C)c2n1` [Compound 132, 6-[7-fluoro-2-(4-piperidyl)indazol-5-yl]-2,8-dimethyl-imidazo[1,2-a]pyrazine], the IC50 (as a rule, the point on the concentration scale where inhibition reaches its midpoint) lay within 1 to 10 µM in the experiment on MYB mRNA (setting [1]), 1 to 10 µM with MYB mRNA (setting [2]), 1 to 10 µM with Target C (setting [1]) and 0.1 to 1 µM with SMN2 mRNA (setting [1]). The AC50 with MYB mRNA (setting [3]) was 1 to 10 µM.
As to `Cc1ncc2cc(-c3cc(F)c4nn(C5CCNCC5)cc4c3)ccc2n1` [Compound 165, 6-[7-fluoro-2-(4-piperidyl)indazol-5-yl]-2-methyl-quinazoline], the half-maximal inhibitory concentration (IC50) in the experiment on MYB mRNA (setting [1]), with MYB mRNA (setting [2]), in the experiment with Target C (setting [1]) and with SMN2 mRNA (setting [1]) was more than 10 µM in each case. Also, in the experiment on MYB mRNA (setting [3]), the AC50 is more than 10 µM.
In the case of `Cc1cn2nc(-c3cc(F)c4nn(C5CCN(CCO)C6(CC6)C5)cc4c3)cc(C)c2n1` (centres unmarked) [Compound 180, 2-[7-[5-(2,8-dimethylimidazo[1,2-b]pyridazin-6-yl)-7-fluoro-indazol-2-yl]-4-azaspiro[2.5]octan-4-yl]ethanol], the AC50 in the experiment with MYB mRNA (24 h) was 0.1 to 1 µM. Moreover, the IC50 in the experiment on MYB mRNA (24 h) was 0.1 to 1 µM; in the experiment with MYB mRNA, 0.1 to 1 µM; with Target C, 0.1 to 1 µM; in the experiment with SMN2 mRNA it was less than 0.1 µM.
Consider `Cn1cc2cc(-c3cc(F)c4nn(C5CCNCC5)nc4c3)cc(F)c2n1` [Compound 103, 4-fluoro-6-(7-fluoro-2-methyl-indazol-5-yl)-2-(4-piperidyl) benzotriazole], for which the IC50 in the experiment on MYB mRNA (setting [1]) is 1 to 10 µM; in the experiment on MYB mRNA (setting [2]), 1 to 10 µM; in the experiment with Target C (setting [1]) it was 1 to 10 µM; in the experiment with SMN2 mRNA (setting [1]), 0.1 to 1 µM. Further, in the experiment with MYB mRNA (setting [3]), the AC50 lay in the range of 1 to 10 µM.
Turning to `Cc1cc(-n2cc3cc(C4CCNCC4)cc(F)c3n2)cc2cn(C)nc12` [Compound 115, 2-(2,7-dimethylindazol-5-yl)-7-fluoro-5-(4-piperidyl)indazole], the IC50 in the experiment with MYB mRNA (setting [1]) was more than 10 µM; with MYB mRNA (setting [2]), more than 10 µM; in the experiment with Target C (setting [1]) it was 1 to 10 µM; in the experiment on SMN2 mRNA (setting [1]), 0.1 to 1 µM. For the same molecule, in the experiment on MYB mRNA (setting [3]), the AC50 was 1 to 10 µM.
Regarding `Cc1cn2nc(-c3cc(F)c4nn([C@@H]5CCNC[C@H]5F)cc4c3)cc(C)c2n1` [Compound 168, 6-(7-fluoro-2-((3R,4R)-3-fluoropiperidin-4-yl)-2H-indazol-5-yl)-2,8-dimethylimidazo [1,2-b]pyridazine], the IC50 in the experiment on MYB mRNA (setting [1]) is 0.1 to 1 µM; in the experiment with MYB mRNA (setting [2]), 0.1 to 1 µM; in the experiment with Target C (setting [1]), 0.1 to 1 µM; in the experiment with SMN2 mRNA (setting [1]), less than 0.1 µM. In addition, the AC50 in the experiment with MYB mRNA (setting [3]) lay in the range of 0.1 to 1 µM.
Consider `Cc1cn2nc(-c3cc(F)c4nn(C5CCN(CCF)CC5)cc4c3)cc(C)c2n1` [Compound 152], for which the IC50 was 0.1 to 1 µM in the experiment with MYB mRNA (setting [1]), 0.1 to 1 µM in the experiment on MYB mRNA (setting [2]), 0.1 to 1 µM with Target C (setting [1]) and less than 0.1 µM in the experiment with SMN2 mRNA (setting [1]). The AC50 in the experiment on MYB mRNA (setting [3]) fell in the range of 0.1 to 1 µM.
Regarding `Cc1nc2c(C)cc(-n3cc4cc(N5CCNCC5)cc(F)c4n3)cc2o1` [Compound 119, 6-(7-fluoro-5-piperazin-1-yl-indazol-2-yl)-2,4-dimethyl-1,3-benzoxazole], the IC50 with MYB mRNA (setting [1]) is more than 10 µM; in the experiment on MYB mRNA (setting [2]) it was more than 10 µM; in the experiment on Target C (setting [1]), more than 10 µM; in the experiment on SMN2 mRNA (setting [1]), 1 to 10 µM. Besides, the AC50 in the experiment with MYB mRNA (setting [3]) is more than 10 µM.
Take `Cc1cc(-n2cc3cc(N4CCNCC4)ccc3n2)cc2cn(C)nc12` [Compound 121, 2,7-dimethyl-5-(5-piperazin-1-ylindazol-2-yl)indazole]: the IC50 in the experiment on MYB mRNA (setting [1]) is more than 10 µM; in the experiment with MYB mRNA (setting [2]), more than 10 µM; with Target C (setting [1]), more than 10 µM; with SMN2 mRNA (setting [1]), 1 to 10 µM. Besides, the AC50 in the experiment on MYB mRNA (setting [3]) is more than 10 µM.
